Source: US6555556B1, “Benzamidine derivatives” (Sankyo Company, Limited, priority 1999, dated 2003)
Structures can show the parent of a compound that is named as a salt.

target: T1, bovine trypsin (Bos taurus, UniProt P00760); assay: Determination of anti-trypsin activity (chromogenic substrate S-2222); assay type: biochemical; conditions: bovine trypsin 0.25 μg-protein/ml, 0.4 mM S-2222, tris-HCl buffer pH 8.4, room temperature, 5 min, absorbance 405 nm
T1 construct: purchased Sigma
T1 sequence (P00760 24-246): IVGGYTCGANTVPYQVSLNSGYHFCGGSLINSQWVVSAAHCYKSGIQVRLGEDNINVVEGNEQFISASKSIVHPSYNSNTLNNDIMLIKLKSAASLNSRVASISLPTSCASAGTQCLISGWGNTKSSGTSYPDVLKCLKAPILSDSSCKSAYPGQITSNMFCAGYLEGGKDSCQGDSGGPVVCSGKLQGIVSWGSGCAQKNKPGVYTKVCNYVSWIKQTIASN
Experimental: Anti-trypsin activity was determined according to the method of Taniuchi et al. [Thromb. Haemost., 79, 543 (1998)] with slight modifications. First, 85 μl of a 50 mM tris-HCl buffer (pH 8.4) containing 0.9% NaCl, 5 μl of chromogenic substrate, S-2222 (final concentration of 0.4 mM, Daiichi Pure Chemicals Co., Ltd., Tokyo, Japan) and 5 μl of a test compound were mixed, and the reaction was started by adding 5 μl of bovine trypsin (final concentration of 0.25 μg-protein/ml, Sigma). Distilled water instead of the test compound was added to the buffer in the control group. The reaction mixture in a total volume of 0.1 ml was incubated at room temperature. The absorbance at 405 nm was measured continuously using a 96-well microplate reader (model 550, BioRad), and the increase in absorbance for 5 min was calculated as an index of trypsin activity.

IC50 [nM]	Compound
520	CC(=N)N1CCC(Oc2ccc(N(C/C=C/c3cccc(C(=N)N)c3)S(=O)(=O)CC(=O)O)cc2Cl)CC1 [Example 9, N-[4-(1-Acetimidoylpiperidin-4-yloxy)-3-chlorophenyl]-N-[3-(3-amidinophenyl)-2-(E)-propenyl]sulfamoylacetic Acid Dihydrochloride]
840	CC(=N)N1CCC(Oc2ccc(N(C/C=C/c3cccc(C(=N)N)c3)S(=O)(=O)CC(=O)O)cc2F)CC1 [Example 11, N-[4-(1-Acetimidoylpiperidin-4-yloxy)-3-fluorophenyl]-N-[3-(3-amidinophenyl)-2-(E)-propenyl]sulfamoylacetic Acid Dihydrochloride]

target: T2, human factor Xa (Homo sapiens, UniProt P00742); assay: Determination of anti-factor Xa activity (chromogenic substrate S-2222); assay type: biochemical; conditions: 0.25 unit/ml human factor Xa, 0.4 mM S-2222, tris-HCl buffer pH 8.4, 5 min at room temperature, absorbance 405 nm; read-out: Factor Xa inhibitory activity [IC50 (nM)]
T2 construct: purchased Cosmo Bio Co., Ltd, Tokyo, Japan
Experimental: Anti-factor Xa activity was determined according to the method of Hara et al. (Thromb. Haemost, 71, 314 (1994), with slight modifications. A 50 mM tris-HCl buffer (pH 8.4) containing 0.9% NaCl, 0.4 mM chromogenic substrate, S-2222 (Daiichi Pure Chemicals Co., Ltd., Tokyo, Japan), and a test compound were mixed, and the reaction was started by adding 0.25 unit/ml human factor Xa (Cosmo Bio Co., Ltd, Tokyo, Japan). Distilled water instead of the test compound was added to the buffer in the control group. The reaction mixture in a total volume of 0.1 ml was incubated for 5 min at room temperature. The absorbance at 405 nm was measured continuously using a 96-well microplate reader (model 550, BioRad), and the increase in absorbance for 5 min was calculated as an index of factor Xa activity.

T2 sequence (P00742 235-488 limits assumed): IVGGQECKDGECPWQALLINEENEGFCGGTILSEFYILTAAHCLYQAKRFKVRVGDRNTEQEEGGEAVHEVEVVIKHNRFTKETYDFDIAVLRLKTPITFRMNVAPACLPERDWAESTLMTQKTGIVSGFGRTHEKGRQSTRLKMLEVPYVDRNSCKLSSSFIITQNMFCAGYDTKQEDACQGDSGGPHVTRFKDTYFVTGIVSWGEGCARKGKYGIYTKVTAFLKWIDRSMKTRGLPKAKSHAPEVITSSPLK
T2 sequence (P00742 41-179 partner limits assumed): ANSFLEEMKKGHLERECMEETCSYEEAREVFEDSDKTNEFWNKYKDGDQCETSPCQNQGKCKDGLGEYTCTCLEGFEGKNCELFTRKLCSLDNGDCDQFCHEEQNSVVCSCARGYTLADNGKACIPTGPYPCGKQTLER

Compound	IC50 [nM]
CCOC(=O)CN(C/C=C/c1cccc(C(=N)N)c1)c1ccc(OC2CCN(C(C)=N)CC2)cc1 [Example 23, Ethyl 2-[N-[4-(1-Acetimidoylpiperidin-4-yloxy)phenyl]-N-[3-(3-amidinophenyl)-2-(E)-propenyl]amino]acetate Trihydrochloride]	8.3
CC(=N)N1CCC(Oc2ccc(N(C/C=C/c3cccc(C(=N)N)c3)S(=O)(=O)CC(=O)O)cc2C(N)=O)CC1 [Example 36, N-[4-(1-Acetimidolpiperdin-4-yloxy)-3-carbamoylphenyl]-N-[3-(3-amidinophenyl)-2-(E)-propenyl]sulfamoylacetic Acid Dihydrochloride]	7.1
CNC(=O)c1cc(N(C/C=C/c2cccc(C(=N)N)c2)S(=O)(=O)CC(=O)O)ccc1OC1CCN(C(C)=N)CC1 [Example 38, N-[4-(1-Acetimidoylpiperidin-4-yloxy)-3-(N′-methylcarbamoyl)phenyl]-N-[3-(3-amidinophenyl)-2-(E)-propenyl]sulfamoylacetic Acid Dihydrochloride]	8.7
CC(=N)N1CCC(Oc2c(Cl)cc(N(C/C=C/c3cccc(C(=N)N)c3)S(=O)(=O)CC(=O)O)cc2Cl)CC1 [Example 49, N-[4-(1-Acetimidoylpiperidin-4-yloxy)-3,5-dichlorophenyl]-N-[3-(3-amidinophenyl)-2-(E)-propenyl]sulfamoylacetic Acid Dihydrochloride]	9.8
CC(=N)N1CCC(Oc2ccc(N(C/C=C/c3cccc(C(=N)N)c3)CCO)cc2)CC1 [Example 28, 3-[3-[N-[4-(1-Acetimidoylpiperidin-4-yloxy)phenyl]-N-(2-hydroxyethyl)amino]-1-(E)-propenyl]benzamidine Trihydrochloride]	9
CC(=N)N1CCC(Oc2ccc(N(C/C=C/c3cccc(C(=N)N)c3)C(C)C)cc2)CC1 [Example 22, 3-[3-[N-[4-(1-Acetimidoylpiperidin-4-yloxy)phenyl]-N-isopropylamino]-1-(E)-propenyl]benzamidine Trihydrochloride]	8.3
CC(=N)N1CCC(Oc2ccc(N(C/C(F)=C/c3cccc(C(=N)N)c3)S(=O)(=O)CC(=O)O)cc2)CC1 [Example 57, N-[4-(1-Acetimidoylpiperidin-4-yloxy)phenyl]-N-[3-(3-amidinophenyl)-2-fluoro-2-(Z)-propenyl]sulfamoylacetic Acid Dihydrochloride]	9.3
CC(=N)N1CCC(Oc2ccc(N(C/C=C/c3cccc(C(=N)N)c3)S(=O)(=O)CC(=O)O)cc2)CC1 [Example 4, N-[4-(1-Acetimidoylpiperidin-4-yloxy)phenyl]-N-[3-(3-amidinophenyl)-2-(E)-propenyl]sulfamoylacetic Acid Dihydrochloride]	6.4
CCOC(=O)CS(=O)(=O)N(C/C=C/c1cccc(C(=N)N)c1)c1cc(F)c(OC2CCN(C(C)=N)CC2)c(F)c1 [Example 46, Ethyl N-[4-(1-Acetimidoylpiperidin-4-yloxy)-3,5-difluorophenyl]-N-[3-(3-amidinophenyl)-2-(E)-propenyl]sulfamoylacetate Dihydrochloride]	6.8
CCOC(=O)CS(=O)(=O)N(C/C(F)=C/c1cccc(C(=N)N)c1)c1ccc(OC2CCN(C(C)=N)CC2)cc1 [Example 56, Ethyl N-[4-(1-Acetimidoylpiperidin-4-yloxy)phenyl]-N-[3-(3-amidinophenyl)-2-fluoro-2-(Z)-propenyl]sulfamoylacetate Dihydrochloride]	10
CCOC(=O)CS(=O)(=O)N(C/C=C/c1cccc(C(=N)N)c1)c1ccc(OC2CCN(C(C)=N)CC2)c(C(=O)OCC)c1 [Example 29, Ethyl N-[4-(1-Acetimidoylpiperidin-4-yloxy)-3-ethoxycarbonylphenyl]-N-[3-(3-amidinophenyl)-2-(E)-propenyl]sulfamoylacetate Dihydrochloride]	9
CC(=N)N1CCC(Oc2ccc(N(C/C=C/c3cccc(C(=N)N)c3)S(=O)(=O)CC(=O)O)cc2F)CC1 [Example 11, N-[4-(1-Acetimidoylpiperidin-4-yloxy)-3-fluorophenyl]-N-[3-(3-amidinophenyl)-2-(E)-propenyl]sulfamoylacetic Acid Dihydrochloride]	8.1
CCOC(=O)CS(=O)(=O)N(C/C=C/c1cc(C(=N)N)ccc1O)c1ccc(OC2CCN(C(C)=N)CC2)c(Cl)c1 [Example 41, Ethyl N-[4-(1-Acetimidoylpiperidin-4-yloxy)-3-chlorophenyl]-N-[3-(5-amidino-2-hydroxyphenyl)-2-(E)-propenyl]sulfamoylacetate Dihydrochloride]	7.5

The remaining molecules from weak to strong by IC50, led by results:

IC50 [nM]	Compound
130	CC(=N)N1CCC(Oc2ccc(N(CCOc3cccc(C(=N)N)c3)S(=O)(=O)CC(=O)O)cc2)CC1 [Compound A, N-[4-[1-acetimidoyl-4-piperidyloxy]phenyl]-N-[2-(3-amidinophenoxy)ethyl]sulfamoylacetic acid dihydrochloride salt, reference compound]
10	CC(=N)N1CCC(Oc2ccc(N(C/C=C/c3cccc(C(=N)N)c3)S(=O)(=O)CC(=O)O)cc2C(C)C)CC1 [Example 34, N-[4-(1-Acetimidoylpiperidin-4-yloxy)-3-isopropylphenyl]-N-[3-(3-amidinophenyl)-2-(E)-propenyl]sulfamoylacetic Acid Dihydrochloride]
10	CCOC(=O)CS(=O)(=O)N(C/C=C/c1cccc(C(=N)N)c1)c1ccc(OC2CCN(C(C)=N)CC2)c(Br)c1 [Example 31, Ethyl N-[4-(1-Acetimidoylpiperidin-4-yloxy)-3-bromophenyl]-N-[3-(3-amidinophenyl)-2-(E)-propenyl]sulfamoylacetate Dihydrochloride]
8.6	CCOC(=O)CS(=O)(=O)N(C/C=C/c1cccc(C(=N)N)c1)c1ccc(OC2CCN(C(C)=N)CC2)cc1 [Example 3, Ethyl N-[4-(1-Acetimidoylpiperidin-4-yloxy)phenyl]-N-[3-(3-amidinophenyl)-2-(E)-propenyl]sulfamoylacetate Dihydrochloride]
7.4	CC(=N)N1CCC(Oc2ccc(N(C/C=C/c3cccc(C(=N)N)c3)S(=O)(=O)CC(=O)O)cc2Cl)CC1 [Example 9, N-[4-(1-Acetimidoylpiperidin-4-yloxy)-3-chlorophenyl]-N-[3-(3-amidinophenyl)-2-(E)-propenyl]sulfamoylacetic Acid Dihydrochloride]
5	CC(=N)N1CCC(Oc2ccc(N(C/C=C/c3cccc(C(=N)N)c3)S(=O)(=O)CC(=O)O)cc2C)CC1 [Example 55, N-[4-(1-Acetimidoylpiperidin-4-yloxy)-3-methylphenyl]-N-[3-(3-amidinophenyl)-2-(E)-propenyl]sulfamoylacetic Acid Dihydrochloride]
4.6	CCOC(=O)CS(=O)(=O)N(C/C=C/c1cccc(C(=N)N)c1)c1ccc(OC2CCN(C(C)=N)CC2)c(F)c1 [Example 10, Ethyl N-[4-(1-Acetimidoylpiperidin-4-yloxy)-3-fluorophenyl]-N-[3-(3-amidinophenyl)-2-(E)-propenyl]sulfamoylacetate Dihydrochloride]
4.6	CC(=N)N1CCC(Oc2ccc(N(C/C=C/c3cccc(C(=N)N)c3)S(=O)(=O)CC(=O)O)cc2C(F)(F)F)CC1 [Example 54, N-[4-(1-Acetimidoylpiperidin-4-yloxy)-3-trifluoromethylphenyl]-N-[3-(3-amidinophenyl)-2-(E)-propenyl]sulfamoylacetic Acid Dihydrochloride]
4.5	CCOC(=O)CS(=O)(=O)N(C/C=C/c1cccc(C(=N)N)c1)c1ccc(OC2CCN(C(C)=N)CC2)c(Cl)c1 [Example 8, Ethyl N-[4-(1-Acetimidoylpiperidin-4-yloxy)-3-chlorophenyl]-N-[3-(3-amidinophenyl)-2-(E)-propenyl]sulfamoylacetate Dihydrochloride]
3.7	CC(=N)N1CCC(Oc2c(F)cc(N(C/C=C/c3cccc(C(=N)N)c3)S(=O)(=O)CC(=O)O)cc2F)CC1 [Example 47, N-[4-(1-Acetimidoylpiperidin-4-yloxy)-3,5-difluorophenyl]-N-[3-(3-amidinophenyl)-2-(E)-propenyl]sulfamoylacetic Acid Dihydrochloride]
